Assay results published in article PMC6864722, “Design and Synthesis of Novel Breast Cancer Therapeutic Drug Candidates Based upon the Hydrophobic Feedback Approach of Antiestrogens” (Molecules, 2019).
Entries after “also recorded” stand apart in the source; their conditions may differ.

Assays:
ERα = test system: ERα; design: method as in doi:10.1351/pac200375091197; conditions: cited from earlier work
OVX and ORX mice = test system: OVX and ORX mice; design: method as in doi:10.1351/pac200375091197; conditions: cited from earlier work
[1] = biological target: T1, human estrogen receptor α (ERα) (Homo sapiens, UniProt P03372); assay: Competitive binding assay using [6,7-3H]17β-estradiol and human recombinant ERα (nitrocellulose filter binding); conditions: for RBA (relative binding affinity): binding affinity of E2 taken as 100, estimated from sigmoidal dose-response curves
T1 sequence (P03372 1-595): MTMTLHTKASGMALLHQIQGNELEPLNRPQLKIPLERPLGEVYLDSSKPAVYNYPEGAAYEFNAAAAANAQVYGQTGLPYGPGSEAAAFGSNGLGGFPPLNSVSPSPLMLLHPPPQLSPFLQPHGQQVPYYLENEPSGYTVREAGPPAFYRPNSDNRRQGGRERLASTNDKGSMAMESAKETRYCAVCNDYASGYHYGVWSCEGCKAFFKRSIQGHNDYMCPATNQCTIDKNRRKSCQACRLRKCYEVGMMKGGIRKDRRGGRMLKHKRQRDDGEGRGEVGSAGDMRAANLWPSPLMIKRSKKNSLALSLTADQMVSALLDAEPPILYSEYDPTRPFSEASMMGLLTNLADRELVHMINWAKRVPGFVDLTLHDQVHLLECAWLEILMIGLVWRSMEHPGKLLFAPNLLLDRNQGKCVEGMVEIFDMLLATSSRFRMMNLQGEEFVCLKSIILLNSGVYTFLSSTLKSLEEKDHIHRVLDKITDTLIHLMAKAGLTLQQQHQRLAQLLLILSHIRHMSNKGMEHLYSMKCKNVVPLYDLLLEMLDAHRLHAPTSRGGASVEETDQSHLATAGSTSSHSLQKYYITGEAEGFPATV
Description: The ligand binding activity of human estrogen receptor α (ER α) was determined by a nitrocellulose filter binding assay method. […] Radioactivity that remained in the membrane was measured in Atomlight by using a liquid scintillation counter.
All binding assays were performed in duplicate (n = 2).

MCF-7 cells = assay: MCF-7 cell proliferation assay (WST-8), in the presence or absence of 0.1 nM E2; type: cell-based, human; conditions: for EC50: estrogenic activity, absence of E2, four days; for Emax / IC50: MCF7; for Emax: read-out: Emax (maximal efficacy toward cell proliferation); for IC50: proliferation induced by 0.1 nM of E2, read-out: IC50 (inhibition of MCF-7 cell proliferation)
Description: Table 1 summarizes the EC50, IC50, and Emax values estimated from the MCF-7 cell proliferation assays. Emax represents the maximal efficacy of each compound toward cell proliferation and is an index of ER partial agonistic activity. Emax was estimated relative to that of E2, which was taken as 100.
The human breast adenocarcinoma cell line MCF-7 was routinely cultivated in DMEM supplemented with 10% FBS and 100 IU/mL penicillin and […] streptomycin at 37 °C in a 5% CO2 humidified incubator. Before an assay, MCF-7 cells were switched to DMEM (low glucose phenol red-free supplemented with 5% FBS, and 100 IU/mL penicillin and […] streptomycin). Cells were trypsinized from the maintenance dish with phenol red-free trypsin-EDTA and seeded in a 96-well plate at a density of 2000 cells per final volume of 100 μL DMEM supplemented with 5% stripped FBS and 100 IU/mL penicillin and […] streptomycin. After 24 h, the medium was removed and 90 μL of fresh medium and 10 μL of drug solution, supplemented with serial dilutions of test compounds or DMSO as dilute control in the presence or absence of 0.1 nM E2, were added to triplicate microcultures. Cells were incubated for four days. At the end of the incubation time, number of cells was counted by using the WST-8, which was added to microcultures 10 μL each, and they were incubated for 2–4 h. The absorbance at 450 nm was measured. This parameter relates to and number of living cells in the culture.

ER = test system: ER; design: method as in PMID 15943468; conditions: cited from earlier work
[2] = Homo sapiens, relative to E2, taken as 100

Row | RBA (relative binding affinity) [1] [%] | EC50 (MCF-7 cells; Homo sapiens, MCF7, 96 h) [nM] | melting point [°C] | Compound | Estrogenic / antiestrogenic activity toward MCF-7 (in words) (MCF-7 cells) | Binding to ERα (in words) [1] | Emax (MCF-7 cells; [2]) [%] | also measured
1 | 4.9 | – | – | 3,4-Bis (4-hydroxyphenyl)-2,3,6,7-tetrahydrothiepine [5a] | acted as an agonist toward MCF-7 cell proliferation; also recorded: showed estrogenic activity | – | – | EC50 (MCF-7 cells): 48 nM; Emax (maximal efficacy toward cell proliferation) (MCF-7 cells; relative to E2, taken as 100): 99%
2 | – | 4700 | – | O=S1(=O)CCC(c2ccc(O)cc2)=C(c2ccc(O)cc2)CC1 [5c, 4,5-Bis (4-hydroxyphenyl)-2,3,6,7-tetrahydrothiepine-1,1-dioxide] | weak estrogenic activity; also recorded: showed estrogenic activity | – | 89 | –

The remaining lines, values behind:

Row | Compound | RBA (relative binding affinity) [1] [%] | EC50 (MCF-7 cells; Homo sapiens, MCF7, 96 h) [nM] | melting point [°C] | Estrogenic / antiestrogenic activity toward MCF-7 (in words) (MCF-7 cells) | Binding to ERα (in words) [1] | Emax (MCF-7 cells; [2]) [%] | also measured
3 | 1,2-bis(4-hydroxyphenyl)-o-carborane [BE360] | – | – | – | – | – | – | Binding affinity toward ERα (in words) (ERα): high binding affinity toward ERα; Estrogenic action in bone and uterus (in words) (OVX and ORX mice): estrogenic action in bone without showing estrogenic action in the uterus
4 | Oc1ccc(C2=C(c3ccc(O)cc3)CSC2)cc1 [4a, 3,4-Bis-(4-hydroxyphenyl)-2,5-dihydrothiophene] | – | 390 | – | showed estrogenic activity | moderately bound to ERα | 119 | Binding affinity, times lower than that of E2 [1]: about 100 times
5 | [O-][S+]1CC(c2ccc(O)cc2)=C(c2ccc(O)cc2)C1 [4b, 3,4-Bis-(4-hydroxyphenyl)-2,5-dihydrothiophene-1-oxide] | 0.003 | – | 219 to 220 | – | did not bind to the ERα ligand-binding domain (LBD), even at concentrations 1000 times higher than that of E2 | – | –
6 | O=S1(=O)CC(c2ccc(O)cc2)=C(c2ccc(O)cc2)C1 [4c, 3,4-Bis-(4-hydroxyphenyl)-2,5-dihydrothiophene-1,1-dioxide] | 0.04 | 300 | 180.5 to 181 | showed estrogenic activity | did not bind to the ERα ligand-binding domain (LBD), even at concentrations 1000 times higher than that of E2 | 130 | –
7 | CN(C)CCCOc1ccc(C2=C(c3ccc(O)cc3)CSC2)cc1 [4d, 4-{4-[4-(3-dimethylaminopropoxy)phenyl]-2,5-dihydrothiophen-3-yl}phenol] | 4.0 | – | 177 to 178.5 | acted as ER antagonists | – | – | IC50 (MCF-7 cells; Homo sapiens): 410 nM
8 | CN(C)CCCOc1ccc(C2=C(c3ccc(O)cc3)CCSCC2)cc1 [5d, 4-{5-[4-(3-Dimethylaminopropoxy)phenyl]-2,3,6,7-tetrahydrothiepin-4-yl}phenol] | – | – | – | acted as ER antagonists | – | – | IC50 (MCF-7 cells; Homo sapiens): 90 nM
9 | Oc1ccc(C2=C(c3ccc(O)cc3)C3CCC2CC3)cc1 [compound 2] | – | – | – | – | – | – | Estrogenic activity (in words) (ER): potent estrogenic activity
10 | CC1(C)CC(c2ccc(O)cc2)=C(c2ccc(O)cc2)CC1(C)C [compound 3] | – | – | – | – | – | – | Estrogenic activity (in words) (ER): acted as a partial agonist
